Assay results: PMC6009955, “Synthesis of new pyridothienopyrimidinone and pyridothienotriazolopyrimidine derivatives as pim-1 inhibitors” (Journal of Enzyme Inhibition and Medicinal Chemistry, 2017)
Where two headings read alike, the source gives them in different places.

Legend:
[1] = target: T1, Human proto-oncogene serine/threonine-protein kinase pim-1 (PIM1) (Homo sapiens, UniProt P11309); assay: Pim-1 kinase inhibitory activity (PIM1 ELISA kit); type: biochemical; conditions: for inhibition at 25 µM: read-out: % Inhibition at 25µM; for IC50: tested at 0.2, 1, 5 and 25 µM
T1 construct: purchased MBS7573
Experimental: The kinase inhibitory activity of the synthesised compounds was determined using Human proto-oncogene serine/threonine-protein kinase pim-1 (PIM1) ELISA Kit (catalog #MBS7573). All the compounds were tested for their inhibitory activity against pim-1 kinase at 0.2, 1, 5 and 25 µM using Staurosporine as a reference standard.

pim-1 = conditions: cited from earlier work
[2] = system: human breast adenocarcinoma (MCF7); assay: In vitro cytotoxic activity, MTT method, MCF7; type: cell-based; conditions: MCF-7, MTT, 48 h incubation, means of three experiments
Experimental: Cell line cells were obtained from American Type Culture Collection (ATCC, Manassas, VA). The cell lines used in this study were human breast adenocarcinoma (MCF7) and human colon adenocarcinoma (HCT116). The cells were cultured using DMEM (Invitrogen/Life Technologies) supplemented with 10% FBS (Hyclone), 10 µg/mL insulin (Sigma) and 1% penicillin-streptomycin. All of the other chemicals and reagents were from Sigma or Invitrogen. […] The culture medium was removed to a centrifuge tube. The cell layer was rinsed with 0.25% (w/v) Trypsin 0.53 mM EDTA solution to remove all traces of serum which contains Trypsin inhibitor. Then, 2–3 ml of Trypsin EDTA solution was added and the cells were observed under an inverted microscope until the cell layer is dispersed (usually within 5–15 min.). A volume of 6 to 8 ml of complete growth medium was added and the cells were aspirated by gently pipetting. The cell suspension was transferred to the centrifuge tube with the culture medium and centrifuged at approximately 125 ×g for 5 to 10 min. The supernatant was discarded and the cells were suspended in fresh growth medium then incubated at 37 °C for 24 h. After treatment of the cells with the serial concentrations of the test compounds or the control Staurosporine in DMSO (at concentrations of 200, 100, 10, 1 and 0.1 µM), incubation was carried out for 48 h at 37 °C, then the plates were examined under the inverted microscope and proceeded for the MTT assay. The MTT method of monitoring in vitro cytotoxicity is well suited for use with multiwell plates. For best results, cells in the log phase of growth should be employed and final cell number should not exceed 10^6 cells/cm^2. Each test should include a blank containing complete medium without cells. Cell cultures were removed from the incubator into laminar flow hood. Each vial of MTT [M-5655] was reconstituted to be used with 3 ml of medium or balanced salt solution without phenol red and serum and the reconstituted MTT was added in an amount equal to 10% of the culture medium volume. Then the cultures were returned to the incubator for 2–4 h depending on the cell type and the maximum cell density. After the incubation period, the cultures were removed from incubator and the resulting formazan crystals were dissolved by adding an amount of MTT solvent (solubilisation solution) [M-8910] equal to the original culture medium volume. Gentle mixing in a gyratory shaker enhanced dissolution. Occasionally pipetting up and down [trituration] may be required to completely dissolve the MTT formazan crystals. The absorbance was measured at a wavelength of 450 nm using Bioline ELIZA reader. The background absorbance of the multiwell plates was measured at 690 nm and subtracted from the 450 nm measurement. The results are shown in Table 2 and graphically represented in Figure 5. […] The results in terms of IC50 in µM are given in Table 2 and represented graphically in Figure 5.

[3] = system: human colon adenocarcinoma (HCT116); assay: In vitro cytotoxic activity, MTT method, HCT116; type: cell-based; conditions: 48 h incubation, means of three experiments
Experimental: Cell line cells were obtained from American Type Culture Collection (ATCC, Manassas, VA). The cell lines used in this study were human breast adenocarcinoma (MCF7) and human colon adenocarcinoma (HCT116). The cells were cultured using DMEM (Invitrogen/Life Technologies) supplemented with 10% FBS (Hyclone), 10 µg/mL insulin (Sigma) and 1% penicillin-streptomycin. All of the other chemicals and reagents were from Sigma or Invitrogen. […] The culture medium was removed to a centrifuge tube. The cell layer was rinsed with 0.25% (w/v) Trypsin 0.53 mM EDTA solution to remove all traces of serum which contains Trypsin inhibitor. Then, 2–3 ml of Trypsin EDTA solution was added and the cells were observed under an inverted microscope until the cell layer is dispersed (usually within 5–15 min.). A volume of 6 to 8 ml of complete growth medium was added and the cells were aspirated by gently pipetting. The cell suspension was transferred to the centrifuge tube with the culture medium and centrifuged at approximately 125 ×g for 5 to 10 min. The supernatant was discarded and the cells were suspended in fresh growth medium then incubated at 37 °C for 24 h. After treatment of the cells with the serial concentrations of the test compounds or the control Staurosporine in DMSO (at concentrations of 200, 100, 10, 1 and 0.1 µM), incubation was carried out for 48 h at 37 °C, then the plates were examined under the inverted microscope and proceeded for the MTT assay. The MTT method of monitoring in vitro cytotoxicity is well suited for use with multiwell plates. For best results, cells in the log phase of growth should be employed and final cell number should not exceed 10^6 cells/cm^2. Each test should include a blank containing complete medium without cells. Cell cultures were removed from the incubator into laminar flow hood. Each vial of MTT [M-5655] was reconstituted to be used with 3 ml of medium or balanced salt solution without phenol red and serum and the reconstituted MTT was added in an amount equal to 10% of the culture medium volume. Then the cultures were returned to the incubator for 2–4 h depending on the cell type and the maximum cell density. After the incubation period, the cultures were removed from incubator and the resulting formazan crystals were dissolved by adding an amount of MTT solvent (solubilisation solution) [M-8910] equal to the original culture medium volume. Gentle mixing in a gyratory shaker enhanced dissolution. Occasionally pipetting up and down [trituration] may be required to completely dissolve the MTT formazan crystals. The absorbance was measured at a wavelength of 450 nm using Bioline ELIZA reader. The background absorbance of the multiwell plates was measured at 690 nm and subtracted from the 450 nm measurement. […]

pim-2 = conditions: cited from earlier work
[4] = previous work, 2-aryl-2,3-dihydro derivatives ref 9, read-out: IC50 pim-1 inhibition

T1 sequence (P11309 whole entry): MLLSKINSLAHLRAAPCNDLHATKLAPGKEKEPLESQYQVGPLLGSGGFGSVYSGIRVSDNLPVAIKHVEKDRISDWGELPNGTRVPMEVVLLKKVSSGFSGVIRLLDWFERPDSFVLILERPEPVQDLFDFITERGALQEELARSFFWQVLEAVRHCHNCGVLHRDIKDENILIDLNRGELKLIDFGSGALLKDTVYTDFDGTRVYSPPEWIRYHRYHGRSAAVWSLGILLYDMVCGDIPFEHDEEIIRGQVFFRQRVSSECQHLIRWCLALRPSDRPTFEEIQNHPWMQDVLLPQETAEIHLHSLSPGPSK

Cc1nc2sc3c(c2c(C)c1Br)NC(c1ccc(OCc2ccccc2)cc1)NC3=O (centres unmarked) [Compound 3a, 2-(4-(Benzyloxy)phenyl)-8-bromo-7,9-dimethyl-2,3-dihydropyrido[3′,2′:4,5]thieno[3,2-d]pyrimidin-4(1H)-one]
inhibition at 25 µM ([1]; pim-1 kinase, 25 µM): 83%
IC50 ([1]; pim-1 kinase): 960 nM
melting point: 255 to 256 °C

Cc1nc2sc3c(c2c(C)c1Br)NC(c1ccccc1Cl)NC3=O (centres unmarked) [Va]
IC50 (pim-1; [4]): 1180 nM

Cc1nc2sc3c(c2c(C)c1Br)NC(c1ccc(F)cc1)NC3=O (centres unmarked) [Compound 3f, 8-Bromo-2-(4-fluorophenyl)-7,9-dimethyl-2,3-dihydropyrido[3′,2′:4,5]thieno[3,2-d]pyrimidin-4(1H)-one]
inhibition at 25 µM ([1]; pim-1 kinase, 25 µM): 89%
IC50 ([1]; pim-1 kinase): 1000 nM
melting point: > 300 °C

Cc1nc2sc3c(c2c(C)c1Br)NC(c1ccsc1)NC3=O (centres unmarked) [Compound 3j, 8-Bromo-7,9-dimethyl-2-(thiophen-3-yl)-2,3-dihydropyrido[3′,2′:4,5]thieno[3,2-d]pyrimidin-4(1H)-one]
IC50 ([2]; Homo sapiens, MCF7, 48 h): < 500 nM
IC50 [2]: 310 ± 20 nM
inhibition at 25 µM ([1]; pim-1 kinase, 25 µM): 95%
IC50 ([1]; pim-1 kinase): 100 nM
melting point: 280 to 281 °C
IC50 ([3]; Homo sapiens, HCT-116, 48 h): 4820 ± 210 nM

Cc1nc2sc3c(=N)n(N=Cc4ccc(Br)cc4)cnc3c2c(C)c1Br [Compound 9a, 8-Bromo-N-(4-bromobenzylidene)-4-imino-7,9-dimethylpyrido[3′,2′:4,5]thieno[3,2-d]pyrimidin-3(4H)-amine]
inhibition at 25 µM ([1]; pim-1 kinase, 25 µM): 88%
IC50 ([1]; pim-1 kinase): 520 nM
melting point: > 300 °C

CCOC(=O)Cc1nc2c3sc4nc(C)c(Br)c(C)c4c3ncn2n1 [Compound 8, ethyl 2-(8-bromo-7,9-dimethylpyrido[3′,2′:4,5]thieno[2,3-e][1,2,4]triazolo[1,5-c]pyrimidin-2-yl)acetate]
IC50 ([2]; Homo sapiens, MCF7, 48 h): < 500 nM
IC50 [2]: 410 ± 30 nM
inhibition at 25 µM ([1]; pim-1 kinase, 25 µM): 95%
IC50 ([1]; pim-1 kinase): 100 nM
melting point: 198 to 199 °C

Cc1nc2sc3c(=N)n(N=Cc4ccccc4C(F)(F)F)cnc3c2c(C)c1Br [Compound 9b, 8-Bromo-4-imino-7,9-dimethyl-N-(2-(trifluoromethyl)benzylidene)pyrido[3′,2′:4,5]thieno[3,2-d]pyrimidin-3(4H)-amine]
inhibition at 25 µM ([1]; pim-1 kinase, 25 µM): 89%
IC50 ([1]; pim-1 kinase): 220 nM
melting point: > 300 °C

Cc1nc2sc3c(c2c(C)c1Br)NC(c1ccccc1C(F)(F)F)NC3=O (centres unmarked) [Vc]
IC50 (pim-1; [4]): 1970 nM

Cc1nc2sc3c(ncn4ncnc34)c2c(C)c1Br [Compound 6, 8-bromo-7,9-dimethylpyrido[3′,2′:4,5]thieno[2,3-e][1,2,4]triazolo[1,5-c]pyrimidine]
inhibition at 25 µM ([1]; pim-1 kinase, 25 µM): 81%
IC50 ([1]; pim-1 kinase): 1080 nM
melting point: 277 to 278 °C

Cc1nc2sc3c(c2c(C)c1Br)NC(c1ccccc1O)NC3=O (centres unmarked) [Vb]
IC50 (pim-1; [4]): 1380 nM

Cc1nc2sc3c(c2c(C)c1Br)NC(c1ccc(Br)cc1)NC3=O (centres unmarked) [Compound 3b, 8-Bromo-2-(4-bromophenyl)-7,9-dimethyl-2,3-dihydropyrido[3′,2′:4,5]thieno[3,2-d]pyrimidin-4(1H)-one]
IC50 ([2]; Homo sapiens, MCF7, 48 h): 1840 ± 120 nM
inhibition at 25 µM ([1]; pim-1 kinase, 25 µM): 96%
IC50 ([1]; pim-1 kinase): 60 nM
melting point: > 300 °C
IC50 ([3]; Homo sapiens, HCT-116, 48 h): 2740 ± 150 nM

O=C(O)c1ccc2c(c1)nc(Nc1cccc(Cl)c1)c1ccncc12 [CX-4595]
IC50 (pim-1; read-out: IC50 (pim-1)): 48 nM
IC50 (pim-2): 186 nM

Cc1nc2sc3c(c2c(C)c1Br)NC(c1ccc(O)cc1O)NC3=O (centres unmarked) [Compound 3d, 8-Bromo-2-(2,4-dihydroxyphenyl)-7,9-dimethyl-2,3-dihydropyrido[3′,2′:4,5]thieno[3,2-d]pyrimidin-4(1H)-one]
inhibition at 25 µM ([1]; pim-1 kinase, 25 µM): 81%
IC50 ([1]; pim-1 kinase): 1340 nM
melting point: 290 to 291 °C

CN[C@@H]1C[C@H]2O[C@@](C)([C@@H]1OC)n1c3ccccc3c3c4c(c5c6ccccc6n2c5c31)C(=O)NC4 [Staurosporine, reference compound]
inhibition at 25 µM [1]: 94%

COc1ccc(C2NC(=O)c3sc4nc(C)c(Br)c(C)c4c3N2)cc1 (centres unmarked) [Compound 3h, 8-Bromo-2-(4-methoxyphenyl)-7,9-dimethyl-2,3-dihydropyrido[3′,2′:4,5]thieno[3,2-d]pyrimidin-4(1H)-one]
inhibition at 25 µM ([1]; pim-1 kinase, 25 µM): 84%
IC50 ([1]; pim-1 kinase): 1170 nM
melting point: > 300 °C

COc1cc(C2NC(=O)c3sc4nc(C)c(Br)c(C)c4c3N2)ccc1O (centres unmarked) [Compound 3g, 8-Bromo-2-(4-hydroxy-3-methoxyphenyl)-7,9-dimethyl-2,3-dihydropyrido[3′,2′:4,5]thieno[3,2-d]pyrimidin-4(1H)-one]
IC50 ([2]; Homo sapiens, MCF7, 48 h): < 500 nM
IC50 [2]: 460 ± 90 nM
inhibition at 25 µM ([1]; pim-1 kinase, 25 µM): 92%
IC50 ([1]; pim-1 kinase): 80 nM

Cc1nc2c3sc4nc(C)c(Br)c(C)c4c3ncn2n1 [Compound 7a, 8-Bromo-2,7,9-trimethylpyrido[3′,2′:4,5]thieno[2,3-e][1,2,4]triazolo[1,5-c]pyrimidine]
inhibition at 25 µM ([1]; pim-1 kinase, 25 µM): 76%
IC50 ([1]; pim-1 kinase): 1760 nM

Cc1nc2sc3c(ncn4nc(C(F)(F)F)nc34)c2c(C)c1Br [Compound 7b, 8-Bromo-7,9-dimethyl-2-(trifluoromethyl)pyrido[3′,2′:4,5]thieno[2,3-e][1,2,4]triazolo[1,5-c]pyrimidine]
IC50 ([2]; Homo sapiens, MCF7, 48 h): 4620 ± 140 nM
inhibition at 25 µM ([1]; pim-1 kinase, 25 µM): 93%
IC50 ([1]; pim-1 kinase): 80 nM
melting point: 199 to 200 °C
IC50 [3]: 650 ± 40 nM
IC50 ([3]; Homo sapiens, HCT-116, 48 h): < 1000 nM

Cc1nc2sc3c(c2c(C)c1Br)NC(c1ccc(O)c(O)c1)NC3=O (centres unmarked) [Compound 3e, 8-Bromo-2-(3,4-dihydroxyphenyl)-7,9-dimethyl-2,3-dihydropyrido[3′,2′:4,5]thieno[3,2-d]pyrimidin-4(1H)-one]
inhibition at 25 µM ([1]; pim-1 kinase, 25 µM): 93%
IC50 ([1]; pim-1 kinase): 60 nM

COc1cc(C2NC(=O)c3sc4nc(C)c(Br)c(C)c4c3N2)cc(OC)c1OC (centres unmarked) [Compound 3i, 8-Bromo-7,9-dimethyl-2-(3,4,5-trimethoxyphenyl)-2,3-dihydropyrido[3′,2′:4,5]thieno[3,2-d]pyrimidin-4(1H)-one]
inhibition at 25 µM ([1]; pim-1 kinase, 25 µM): 81%
IC50 ([1]; pim-1 kinase): 930 nM
melting point: > 300 °C

Cc1nc2sc3c(c2c(C)c1Br)NC(c1ccc(Cl)cc1)NC3=O (centres unmarked) [Compound 3c, 8-Bromo-2-(4-chlorophenyl)-7,9-dimethyl-2,3-dihydropyrido[3′,2′:4,5]thieno[3,2-d]pyrimidin-4(1H)-one]
IC50 ([2]; Homo sapiens, MCF7, 48 h): < 500 nM
IC50 [2]: 390 ± 70 nM
inhibition at 25 µM ([1]; pim-1 kinase, 25 µM): 92%
IC50 ([1]; pim-1 kinase): 140 nM
melting point: > 300 °C
